Values after ≈ are worked out from the molar mass of the structure shown.
Columns and labels:
[1] = anti-tumor activity compared with streptonigrin; details: comparison with streptonigrin, no data given
[2] = tested on: cultured mouse leukemia cell P388; test: inhibition of growth of cultured cells; format: cell-based; details: read-out: median inhibition dose, ID50
Description: The anti-tumor activity of substance MG883-12F2 can be confirmed by measuring its ability to inhibit the growth of known cultured cells. For example, the median inhibition dose, ID50, of substance MG883-12F2 against cultured mouse leukemia cell P388 was 0.5 mg/ml.

[3] = cytotoxicity compared with streptonigrin; details: comparison with streptonigrin, no data given

COc1ccc(-c2c(C)c(C(=O)O)nc(-c3ccc4c(n3)C(=O)C(N)=C(O)C4=O)c2N)c(O)c1OC [substance MG883-12F2]
anti-tumor activity [1]: slightly inferior to streptonigrin | IC50 [2]: 500 µg/mL (≈ 1020 µM) | cytotoxicity [3]: lower cytotoxicity

From patent publication EP0185979A1, “A novel substance having anti-tumor activity, a microbiological process for the preparation thereof and its use as a medicament” (MICROBIAL CHEMISTRY RESEARCH FOUNDATION, priority 1984, dated 1986)
